For one data set, the system named is intact microorganism. The following applies: 400 mg dried cells, 160 mg (±)-substrate; Iriuchijima and Keiyu 1981; cited from earlier work.
Data set [1] has as its system Candida lipase (Genzyme Corporation). The data set is described as follows: Asymmetric hydrolysis in a multiphase membrane bioreactor with enzyme G. Type of data set: biochemical, Candida cylindracea. The following applies: first 45 minutes; 0.75M ester in MIBK, 3.0 grams lipase in membrane, pH 8.50. From the text:
The module was then drained.
This material was recrystallized from hexane.

Data set [2] relates to Candida lipase (Sigma L 1754). Description: Asymmetric hydrolysis in a multiphase membrane bioreactor with enzyme H. As to conditions: for rate of ester hydrolysis: pH 7.0.
Protocol: The enzyme solution was recirculated from the shell side to the lumen side and back to the solution reservoir in an ultra-filtration mode. […] The procedure was completed in one hour.
After loading the enzyme to the reactor, recirculation of 210 gm. […] The recirculation rate was 400 ml/min and the average pressure on the shell compartment was kept at 45,5 KPa (6.5 psi) by adjusting a throttling valve at the shell side exit. On the lumen side 1 liter of 0.05 M K2 PO4 was recirculated at a rate of 400 ml/min. The pH of the aqueous reservoir was kept at 7.0 by addition of 1 M NaOH. The reactor was run continuously for 6.8 days.
The reaction progress and rate were monitored by following the caustic consumption.
Data set [3] can be described thus: Solubility by absorbance of saturated solutions at 262 nm. It counts as physicochemical.
Data set [4] deals with T1, Protease VIII: "Subtilopeptidase A" (Bacillus licheniformis, UniProt P00780).
T1 sequence (P00780 106-379): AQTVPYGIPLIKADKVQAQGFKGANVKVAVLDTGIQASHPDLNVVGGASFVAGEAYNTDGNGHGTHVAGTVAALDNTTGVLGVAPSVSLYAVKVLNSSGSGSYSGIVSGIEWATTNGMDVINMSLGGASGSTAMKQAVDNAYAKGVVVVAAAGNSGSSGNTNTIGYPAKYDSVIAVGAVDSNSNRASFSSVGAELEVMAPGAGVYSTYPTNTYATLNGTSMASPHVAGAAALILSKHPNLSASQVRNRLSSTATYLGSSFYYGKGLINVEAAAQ
The data set is described as follows: Rate of hydrolysis of single enantiomers by pH stat, enzyme B. It counts as biochemical. As to conditions: for Rate: 50 mM single enantiomer, 50 mM buffer pH 7.6, enzyme B. How it is done:
(§1) 15 ml of a solution containing one enantiomer of the ester at a concentration of 50 mM, and Na3PO4 buffer at 50 mM and pH 7.6 was observed using a pH stat device. 0.1 ml of a 50 mg/ml solution of enzyme B, made up from the commercially available preparation in 50 mM Na3 P04 buffer at pH 7.6, were added. Rates of hydrolysis of both enantiomers of the ester compound were determined for the enzyme. The ratio of the rates of hydrolysis for the two enantiomers for the two enantiomers with respect to the enzyme indicate the stereospecificity of that enzyme's hydrolytic action on the racemic mixture of the ester. No evidence for the hydrolysis of the acetylthio ester portion of the substrate molecule was found.

Another data set relates to Protease XIV. Description: Rate of hydrolysis of single enantiomers by pH stat, enzyme I. It counts as biochemical, Streptomyces griseus. The following applies: for Rate: 50 mM single enantiomer, 50 mM buffer pH 7.6, Example 6.2.3.2 (enzyme I in text, (G) in table). The protocol:
as §1, with “solution of protease enzyme I,” for “solution of enzyme B,”, “protease enzyme I, made up” for “of enzyme B, made up”, “50 mM Na3PO4 buffer at” for “50 mM Na3 P04 buffer at”, “for the protease enzyme. The” for “for the enzyme. The”, “ester. No” for “ester. No evidence for the hydrolysis of the acetylthio ester portion of the substrate molecule was found.”
evidence for the hydrolysis of the acetylthio ester portion of the substrate molecule was found.

Data set [5] concerns Protease XXIV: bacterial protease. The data set is described as follows: Rate of hydrolysis of single enantiomers by pH stat, enzyme J. Type of data set: biochemical. The following applies: for Rate: 50 mM single enantiomer, 50 mM buffer pH 7.6, Example 6.2.3.4 (Enzyme J in text, (H) in table). How it is done:
as §1, with “Enzyme J,” for “enzyme B,”, “Na3PO4” for “Na3 P04”

The next data set deals with Protease XXIII. Description: Rate of hydrolysis of single enantiomers by pH stat, enzyme A. It counts as biochemical, Aspergillus oryzae. The following applies: for Rate: 50 mM single enantiomer, 50 mM buffer pH 7.6, enzyme A. How it is done: as §1, with “A,” for “B,”
Data set [6] addresses T2, Protease XXVII: "Nagarse" (Bacillus amyloliquefaciens, UniProt P00782).
T2 sequence (P00782 108-382): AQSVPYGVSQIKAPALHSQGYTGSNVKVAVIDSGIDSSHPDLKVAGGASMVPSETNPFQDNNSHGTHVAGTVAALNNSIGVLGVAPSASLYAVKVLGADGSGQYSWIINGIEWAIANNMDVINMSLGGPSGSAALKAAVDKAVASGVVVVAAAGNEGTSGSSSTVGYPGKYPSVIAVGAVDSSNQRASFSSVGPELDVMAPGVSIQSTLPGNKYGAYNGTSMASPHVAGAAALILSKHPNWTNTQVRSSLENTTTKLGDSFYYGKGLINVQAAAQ
The data set is described as follows: Rate of hydrolysis of single enantiomers by pH stat, enzyme D. Type of data set: biochemical. The following applies: for Rate: 50 mM single enantiomer, 50 mM buffer pH 7.6, enzyme D. The protocol: as §1, with “D,” for “B,”, “thioacetyl” for “acetylthio”

In brackets after ≈: the same amount, converted by molar mass. Structures can show the parent of a compound that is named as a salt. Where two headings read alike, the source gives them in different places.

Usually solubility stands for how much of the substance goes into solution per volume.

As for `COC(=O)C(C)c1ccc2cc(OC)ccc2c1` (racemic) [Compound 18, Methyl Ester of 2-(6-Methoxy-2-naphthyl)propanoic Acid], in the data set on intact microorganism, the substrate converted is listed as 16.3%. The molecule further displayed an average rate in data set [1] of 35 amol/hr.
Turning to `CCCCCCCCOC(=O)C(C)Cl` (racemic) [Compound 20, Octyl Ester of 2-Chloropropanoic Acid], the “rate of ester hydrolysis” value was found to be 186 µmol/min in data set [2] (at the beginning of the experiment, 210 gm neat ester, 30 grams Candida lipase in membrane) and 25 µmol/min in [2] (at the end of the experiment (6.8 days)). In addition, the initial ester hydrolyzed in [2] (when the experiment was terminated (6.8 days)) is listed as 41%. The solubility in data set [3] (aqueous buffer, saturated solutions, pH 7 (50 mM phosphate buffer), room temperature, read-out: Solubility) is 1200 µM (≈ 265 µg/mL); in data set [3] (water, as stated in the text of the examples, read-out: water solubility) it was roughly 1200 µM (≈ 265 µg/mL).
Consider `CC(=O)SC[C@@H](C)C(=O)OCS(=O)(=O)O` [Compound 14, Potassium Salt of the Sulfomethyl Ester of D-(-)-S-3-Acetylthio-2-methylpropanoic Acid], for which the Rate came out at 65 umols/hr/mg in data set [4]; 63 umols/hr/mg with Protease XIV; 61 umols/hr/mg in data set [5]; 5.3 umols/hr/mg with Protease XXIII; 27 umols/hr/mg in [6].
For `CC(=O)SC[C@H](C)C(=O)OCS(=O)(=O)O` [Compound 15, Potassium Salt of the Sulfomethyl Ester of L-(+)-S-3-Acetylthio-2-methylpropanoic Acid], the Rate is 135 umols/hr/mg in [4]; 105 umols/hr/mg in the data set with Protease XIV; 65 umols/hr/mg in data set [5]; 12 umols/hr/mg in the data set on Protease XXIII; 29 umols/hr/mg in data set [6]. The “Rate Ratio L/D” value is recorded as 2.1 in data set [4] (enzyme B, pH 7.6); 1.7 with Protease XIV (Example 6.2.3.2, pH 7.6); 1.1 in data set [5] (Example 6.2.3.4, pH 7.6); 2.3 in the data set with Protease XXIII (enzyme A, pH 7.6); 1.1 in data set [6] (enzyme D, pH 7.6).
